{"source": "patent US9156824B2", "about": "“CDC7 inhibitors” (Eli Lilly and Company, priority 2013, dated 2015)", "key": {"[1]": {"system": "phosphorylated MCM2 at Serine 53 (pMCM2-S53) in H1299 cells", "assay": "Acumen imaging assay for detection of phosphorylated MCM2 in H1299 cells", "format": "cell-based", "conditions": "4 hours treatment, read-out: IC50, inhibition of pMCM2-S53", "protocol": "The Acumen® eX3 is used to determine the effect of compounds on the formation of endogenous phosphorylated MCM2 at Serine 53 (pMCM2-S53). Phosphorylation of MCM2 by CDC7 is determined using specific anti-pMCM2-S53 antibody and quantified with fluorescent tagged secondary antibodies by Acumen® eX3 to monitor CDC7 activity in cells. Phosphorylation of MCM2 at Serine 53 is known to be correlated to CDC7 inhibition.\nH1299 cells (ATCC #CRL-5803) are maintained in RPMI-1640 (Hyclone SH30809.01) growth medium supplemented with 10% FBS. Cells are harvested using standard cell culture procedures and then counted using Vi-Cell XR Cell Viability Analyzer (Beckman Counter). 3000-6000 H1299 cells in 100 μL of growth medium are plated into each well of Biocoat Poly-D-Lysine 96-well black/clear plate with flat bottom BioCoat™ Multiwell (Becton Dickinson) cell culture plates 356640 and incubated overnight at 37° C., 5% CO2.\nCells are treated with the test compound (50 μL/well) diluted in medium containing 0.6% DMSO and incubated for 4 hours at 37° C. To each well is added 7.4% formaldehyde (150 μL) diluted with PBS from 37% formaldehyde stock and the plates are incubated at room temperature for 30 minutes. Formaldehyde is removed and cold methanol (100 μL) is added. The plates are incubated for 20 minutes at 4° C. to permeabilize the cells. Plates are washed 3× with 100 μL/well of PBS. […] The plates are sealed with black seal and are read on the Acumen® eX3 (TTP LABTECH) using optical filter 500-530 nanometer and 575-640 nanometer for Alexa Fluor 488 and propidium iodide, respectively. The number of pMCM2-S53 positive cells is normalized to total cells for each well and are calculated as percent inhibition relative to on-plate controls. […]"}, "[2]": {"biological_target": "T1, CDC7/DBF4 (Homo sapiens, UniProt O00311)", "T1 construct": "host or cells: insect cells", "T1 sequence (O00311 whole entry)": "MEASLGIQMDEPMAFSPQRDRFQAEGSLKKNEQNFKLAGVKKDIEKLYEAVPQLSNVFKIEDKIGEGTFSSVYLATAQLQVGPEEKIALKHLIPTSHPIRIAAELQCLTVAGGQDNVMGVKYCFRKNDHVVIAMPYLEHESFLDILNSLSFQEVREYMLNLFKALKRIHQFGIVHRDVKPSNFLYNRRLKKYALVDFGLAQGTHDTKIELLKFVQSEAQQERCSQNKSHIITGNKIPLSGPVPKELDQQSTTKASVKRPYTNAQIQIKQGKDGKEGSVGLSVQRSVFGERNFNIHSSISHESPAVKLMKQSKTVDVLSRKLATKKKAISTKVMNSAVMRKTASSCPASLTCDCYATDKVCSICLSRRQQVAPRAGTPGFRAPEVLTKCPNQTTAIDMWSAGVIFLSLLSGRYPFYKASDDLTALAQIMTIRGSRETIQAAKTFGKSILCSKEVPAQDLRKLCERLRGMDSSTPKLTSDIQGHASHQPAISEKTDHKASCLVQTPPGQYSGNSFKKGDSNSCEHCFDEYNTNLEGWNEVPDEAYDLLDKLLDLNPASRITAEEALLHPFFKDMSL", "T1 sequence (Q9UBU7 whole entry partner)": "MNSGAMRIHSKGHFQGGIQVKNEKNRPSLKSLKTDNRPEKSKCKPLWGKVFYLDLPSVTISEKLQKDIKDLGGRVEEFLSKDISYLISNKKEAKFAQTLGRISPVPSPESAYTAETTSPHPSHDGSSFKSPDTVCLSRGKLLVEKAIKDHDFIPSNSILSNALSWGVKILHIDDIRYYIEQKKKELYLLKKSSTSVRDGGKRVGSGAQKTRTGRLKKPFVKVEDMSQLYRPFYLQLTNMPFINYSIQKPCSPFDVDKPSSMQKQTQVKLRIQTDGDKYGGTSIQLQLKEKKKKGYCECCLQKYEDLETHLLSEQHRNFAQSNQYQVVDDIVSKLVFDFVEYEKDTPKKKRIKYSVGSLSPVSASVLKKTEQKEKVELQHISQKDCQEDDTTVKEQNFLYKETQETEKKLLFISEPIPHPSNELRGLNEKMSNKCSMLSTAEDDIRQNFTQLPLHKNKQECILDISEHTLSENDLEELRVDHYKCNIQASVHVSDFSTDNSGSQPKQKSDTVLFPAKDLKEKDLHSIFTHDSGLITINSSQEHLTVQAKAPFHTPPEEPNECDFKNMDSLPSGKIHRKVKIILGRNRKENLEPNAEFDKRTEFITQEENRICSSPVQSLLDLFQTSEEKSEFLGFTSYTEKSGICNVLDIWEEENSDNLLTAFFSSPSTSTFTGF", "assay": "CDC7/DBF4 in vitro enzyme assay (Transcreener Kinase ADP-FP)", "format": "biochemical", "conditions": "ATP 5 μM, MCM2 400 nM, 60 minutes, read-out: IC50 against CDC7/DBF4 kinase", "protocol": "The Transcreener™ Kinase ADP-FP assay is used to determine compound IC50 values against CDC7/DBF4 kinase. The Kinase ADP-FP assay assesses the activity of CDC7/DBF4 in the presence of compound inhibitors by measuring the concentration of ADP formed in a kinase reaction. The kinase reaction is performed using a 25 microliter reaction volume in 96 well assay plate. For the ADP-FP assay, the reagents are added to obtain the final reaction conditions of HEPES (25 mM) pH 7.5, 0.03% Triton® X-100, magnesium chloride (10 mM), DTT (1 mM), MCM2 (400 nM) (Amino Acid 1-209, a physiological substrate of CDC7/DBF4), spermine (4 mM), CDC7/DBF4 (2,640 ng/mL) (recombinant human CDC7/DBF4 expressed in insect cells), 4% dimethyl sulfoxide and serial dilutions of compound (diluted 1:3 from 20,000 nM to 1 nM). Enzyme and substrate is added to compound followed by ATP to 5 μM to start the reaction. The plates are incubated at room temperature for 60 minutes.\nFor the ADP-FP format add 25 microliters of a quench detection reagent containing HEPES (52 mM) pH 7.5, EDTA (20 mM), sodium chloride (0.4 M), polyoxyethyleneglycol dodecyl ether (0.02%) (BRIJ-35™), anti-ADP antibody (10 μg/mL), and ADP (4 nM) Transcreener® ADP Alexa Fluor® 633 tracer to quench the reaction. The plates are incubated for 1 hour, and then read in a Wallac EnVision™ 2104 Multilabel Reader (PerkinElmer) in Fluorescence Polarization mode using polarizing filters of Ex620nm and Em688nm wavelength. Millipolarization (mP) raw data is converted to micromolar ADP using a prepared ADP/ATP standard curve starting at 5 μM ADP 1:1 serial dilution in reaction buffer to 0.0025 μM ADP. The IC50 value for each compound is derived using percent inhibition data calculated from the μM ADP reaction data relative to on-plate controls (DMSO versus 100 mM EDTA inhibited enzyme controls). The percent inhibition and ten-point compound concentration data is then fitted to a four-parameter logistic equation."}, "[3]": {"system": "panel of 114 cancer cell lines of colorectal, breast, lung, and blood (leukemia) origin", "assay": "In vitro antiproliferative assay (cell number counting)", "format": "cell-based", "conditions": "for Number of Cell Lines that Die Rapidly: within 2 doubling times", "protocol": "In vitro anti-proliferative activity of Example 2 is determined by cell number counting assays against a panel of 114 cancer cell lines of colorectal, breast, lung, and blood (leukemia) origin obtained from ATCC, HSRRB, RIKEN or ECACC. The cells are cultured and maintained in media per supplier's instructions. Cell doubling time of each cell line is determined and all cell lines are free of mycoplasma contamination. Cells are cultured overnight in 96-well plates before compound addition for anti-proliferative activity assays. Optimal cell seeding density is carefully evaluated for each cell lines by seeding the cell culture with 4 different cell densities in 100 μL media and taking into consideration of their doubling time and cell sizes. The seeding density that gave about 90% confluence at end of two doubling times is then selected for compound testing. Staurosporine is used with 1:3 dilution as a reference. Example 2 is prepared as a 4 mM DMSO stock and diluted in culture media in a 1:2 ratio. 50 μL of the media containing the compound is added to each well of the overnight 96-well culture to produce the desired final concentrations of 20, 10, 5, 2.5, 1.25, 0.625, 0.312, 0.156, 0.078 μM and DMSO control. Each treatment concentration has duplicate wells. The cells are further cultured for two doubling times in the presence of the compound. At end of treatment time, cells are first examined under a microscope for morphological changes, such as cell death or apparent cell size increases. Cells in each duplicate well are collected separately. Adherent cells are harvested by tripsinization first. Harvested cells are re-suspended in growth media and are counted using a cell counter."}, "[4]": {"system": "pMCM2-S40/41 in Colo-205 xenograft tumors", "assay": "CDC7 in vivo target inhibition (IVTI) on pMCM2-S40/41 with Colo-205 xenograft tumor model", "design": "species or system mice", "conditions": "4 hours following an oral dose", "protocol": "Human colo-205 colorectal cancer cells (ATCC#CCL-222) are maintained in RPMI 1640 medium containing 10% FBS. Log phase growing cells are harvested, washed, and resuspended in a 1:1 mixture of serum free medium and Matrigel™ (Becton Dickinson). They are injected subcutaneously at 5×10^6 cells/animal/site in the rear flank as subcutaneous tumor xenograft models in balb/c (nu/nu) female mice (6-8 weeks with body weight of 20 to 25 gram/mouse). Animals are randomized at the mean tumor volume of 150 to 250 mm^3 mice, (v=1×w×0.536 where 1=larger of measured diameter and w=smaller of perpendicular diameter). Compound is administered by P.O. in a standard 1% HEC w/v, P80 0.25% v/v, Antifoam 1510-US 0.05% v/v formulation. […] Protein concentration from tumor lysates is determined by BCA assay (Thermo Scientific) and 5 to 10 μg of protein is separated by standard SDS-PAGE (BioRad Criterion™ gel) or (Invitrogen ePage™ gel). […] Levels of pMCM2-S40/41 are determined and quantified by either Licor or FUJI imagers and normalized to the total GAPDH level. The percent change inhibition of pMCM2-S40/41 band intensity is calculated using the average intensity of vehicle treated control tumors normalized to the GAPDH as the maximum signal. […]"}}, "note": "Like-named read-outs stand apart in the source and are kept apart here.", "data": [{"smiles": "CC1(c2ncncc2F)NC(=O)c2cc(-c3cn[nH]c3)ccc21", "note": "(single isomer, unassigned; isomer 2) [Example 2, 3-(5-Fluoropyrimidin-4-yl)-3-methyl-6-(1H-pyrazol-4-yl)isoindolin-1-one, Isomer 2]", "values": [{"measurement": "IC50", "setting": "[1]; Homo sapiens, NCI-H1299, 4 h", "result": 261, "unit": "nM"}, {"measurement": "IC50", "setting": "[2]", "result": 3.7, "unit": "nM"}, {"measurement": "Number of Cell Lines that Die Rapidly", "setting": "[3]; Breast, of 17 cell lines", "result": 0}, {"measurement": "Number of Cell Lines that Die Rapidly", "setting": "[3]; Colorectal, of 29 cell lines", "result": 4}, {"measurement": "Number of Cell Lines that Die Rapidly", "setting": "[3]; Leukemia, of 23 cell lines", "result": 5}, {"measurement": "Number of Cell Lines that Die Rapidly", "setting": "[3]; Lung, of 39 cell lines", "result": 2}, {"measurement": "Number of Cell Lines that Die Rapidly", "setting": "[3]; Others, of 6 cell lines", "result": 1}, {"measurement": "Number of Cell Lines that Die Rapidly", "setting": "[3]; Total, of 114 cell lines", "result": 12}, {"measurement": "IC50", "setting": "[3]; majority of the 114 cancer cell lines tested, read-out: anti-proliferative activity, pharmacologically relevant concentrations", "result": "< 8000", "unit": "nM"}, {"measurement": "cancer cell lines showing particular sensitivity (massive cell death)", "setting": "[3]; share of the 114 cell lines, within 2 doubling time treatment periods", "result": "about 10%"}]}, {"smiles": "CC1(c2ncncc2F)NC(=O)c2cc(-c3cn[nH]c3)ccc21", "note": "(single isomer, unassigned) [Example 3, 3-(5-Fluoropyrimidin-4-yl)-3-methyl-6-(1H-pyrazol-4-yl)isoindolin-1-one]", "values": [{"measurement": "IC50", "setting": "[1]", "result": 290, "unit": "nM"}, {"measurement": "IC50", "setting": "[2]", "result": 4.5, "unit": "nM"}, {"measurement": "TEC70 (plasma concentration for 70% inhibition of pMCM2 normalized to GAPDH)", "setting": "[4]", "result": 1.8, "unit": "μM"}, {"measurement": "TED70 (dose for 70% inhibition of pMCM2 normalized to GAPDH)", "setting": "[4]", "result": 2.6, "unit": "mg/kg"}]}]}
